This is an account of results in US6124278A, “Acylbenzoxazines for enhancing synaptic response” (The Regents of the University of California, priority 1998, dated 2000).

Where “and” joins values, the source holds several entries; their conditions need not be identical. Equal values may be shown once. Read-outs that look alike come from different tables or passages of the source.

Data set [1] relates to AMPA receptors. Nature of the data set: Field EPSP response in rat hippocampal slices (CA1). The format is cell-based, rat (Sprague-Dawley). The conditions noted are these: for EPSP Response (percentage increase in the area of the EPSP response): rat hippocampal slices. As for the experimental part: The physiological effects of invention compounds can be tested in vitro with slices of rat hippocampus according to the following procedure. Excitatory responses (field EPSPs) are measured in hippocampal slices, which are maintained in a recording chamber continuously perfused with artificial cerebrospinal fluid (ACSF). During a 15-30 minute interval, the perfusion medium is switched to one containing various concentrations of the test compounds. Responses collected immediately before and at the end of drug perfusion were superimposed in order to calculate both the percent increase in EPSP amplitude and percent increase in the width of the response at one-half the peak height (half-width).
To conduct these tests, the hippocampus was removed from anesthetized, 2 month old Sprague-Dawley rats and in vitro slices (400 micrometers thick) were prepared and maintained in an interface chamber at 35° C. using conventional techniques [see, for example, Dunwiddie and Lynch, J. Physiol. 276: 353-367 (1978)]. The chamber was constantly perfused at 0.5 mL/min with ACSF containing (in mM): NaCl 124, KCl 3, KH2 PO4 1.25, MgSO4 2.5, CaCl2 3.4, NaHCO3 26, glucose 10 and L-ascorbate 2. A bipolar nichrome stimulating electrode was positioned in the dendritic layer (stratum radiatum) of the hippocampal subfield CA1 close to the border of subfield CA3.
Current pulses (0.1 msec) through the stimulating electrode activate a population of the Schaffer-commissural (SC) fibers that arise from neurons in the subdivision CA3 and terminate in synapses on the dendrites of CA1 neurons. Activation of these synapses causes them to release the transmitter glutamate. Glutamate binds to the post-synaptic AMPA receptors which then transiently open an associated ion channel and permit a sodium current to enter the postsynaptic cell. This current results in a voltage in the extracellular space (the field excitatory post-synaptic potential or field "EPSP") which is recorded by a high impedance recording electrode positioned in the middle of the stratum radiatum of CA1.
For the experiments summarized Table 1, the intensity of the stimulation current was adjusted to produce half-maximal EPSPs (typically about 1.5-2.0 mV). Paired stimulation pulses were given every 40 sec with an interpulse interval of 200 msec (see below). The field EPSPs of the second response were digitized and analyzed to determine amplitude, half-width, and response area. If the responses were stable for 15-30 minutes (baseline), test compounds were added to the perfusion lines for a period of about 15 minutes. The perfusion was then changed back to regular ACSF.
Paired-pulse stimulation was used since stimulation of the SC fibers, in part, activates interneurons which generate an inhibitory postsynaptic potential (IPSP) in the pyramidal cells of CA1. This feed forward IPSP typically sets in after the EPSP reaches its peak. It accelerates the repolarization and shortens the decay phase of the EPSP, and thus could partially mask the effects of the test compounds. One of the relevant features of the feed-forward IPSP is that it can not be reactivated for several hundred milliseconds following a stimulation pulse. […]
The field EPSP recorded in field CA1 after stimulation of CA3 axons is known to be mediated by AMPA receptors: the receptors are present in the synapses [Kessler et al., Brain Res. 560: 337-341 (1991)] and drugs that selectively block the receptor selectively block the field EPSP [Muller et al., Science, supra]. […]

The nature of data set [2]: Plasma clearance half-life and oral bioavailability (AUC oral vs iv) in rat. The class given is in vivo. From the text:
(§1) The third data column reports the magnitude of the increase in the amplitude of the EPSP at the lowest concentrations that produced a significant increase. The characteristic of a compound to produce an increase in the EPSP response has been a reliable predictor of the ability to improve memory in the 8-arm radial maze task.
*Plasma clearance following iv administration in rat
^# AUC for oral administration as a percentage of AUC for iv

For data set [3] the following is noted: comparison compound, Example 1 of U.S. Pat. No. 5,736,543; rat; cited from earlier work.
Data set [4] can be described thus: Memory enhancement in eight-arm radial maze. The class given is in vivo. The note with it: rat, read-out: Maze MED (Minimum Effective Dose to improve performance of rats in the eight-arm radial maze).
Description: as §1
^.dagger-dbl. Minimum Effective Dose to improve performance of rats i
the eightarm radial maze.

In data set [5] the test system is AMPA receptors. The note with it: metabolite; cited from earlier work.

For `O=C1CCC2Oc3cc4c(cc3CN12)OCO4` (centres unmarked) [Compound 1, 5a,6,7,8-Tetrahydro-1,3-dioxolo[4,5-g]pyrrolo[2,1-b][1,3]benzoxazine-8(10H)-one], in the data set with AMPA receptors [1] (300 μM), the “EPSP Response (percentage increase in the area of the EPSP response)” value is 20% and 25%. For the same compound, the half-life (in general, how long it takes for the measured level to halve) in data set [2] (iv administration) was determined as 58 min. Moreover, the bioavailability in data set [2] (oral vs iv, read-out: Bioavailability (AUC for oral administration as a percentage of AUC for iv)) was 100%. For the compound `O=C1c2cc3c(cc2OC2CCCN12)OCO3` (centres unmarked) [Example 1 of U.S. Pat. No. 5,736,543], in data set [3], the bioavailability is on record as 35% and the half-life is recorded as 31 min. With `O=C1CCC2Oc3cc4c(cc3CN12)OCCO4` (centres unmarked) [Compound 2, 6a,7,8,9-Tetrahydro-1,4-dioxin[2,3-g]pyrrolo[2,1-b][1,3]benzoxazine-9(11H)-one], the “EPSP Response (percentage increase in the area of the EPSP response)” value in the data set with AMPA receptors [1] (30 μM) is given as 20%. Moreover, the minimal effective dose in data set [4] is 0.1 mg/kg. `O=C1CCC2Oc3cc4c(cc3C(=O)N12)OCO4` (centres unmarked) [Compound 4, 5a,6,7,8-Tetrahydro-1,3-dioxolo[4,5-g]pyrrolo[2,1-b][1,3]benzoxazine-8,10(10H)-dione]: in the data set with AMPA receptors [1] (300 μM), the “Activity in the slice model, in words” value is “inactive” and the “EPSP Response (percentage increase in the area of the EPSP response)” value is listed as 0%.

Regarding `COc1ccc(C(=O)NCCCC(=O)O)cc1` [anisoyl-GABA], the Aniracetam-like effects entry in the data set on AMPA receptors [5] is listed as “only weak aniracetam-like effects”. Regarding `O=C1CCCC2Oc3cc4c(cc3CN12)OCCO4` (centres unmarked) [Compound 3, 6a,7,8,9-Tetrahydro-1,4-dioxan[2,3-g]pyrido[2,1-b][1,3]benzoxazine-10(10H,12H)-dione], the “EPSP Response (percentage increase in the area of the EPSP response)” value in the data set on AMPA receptors [1] (30 μM) is recorded as 10%.
